{"source": "paper PMC2095803", "about": "(Nucleic Acids Research, 2007)", "test_in_all_cases": "PEP", "key": {"[1]": {"target": "T1, Therminator DNA polymerase (Thermococcus sp., UniProt Q56366, A485L/D141A/E143A)", "T1 sequence (Q56366 1-775 D141A/E143A/A485L)": "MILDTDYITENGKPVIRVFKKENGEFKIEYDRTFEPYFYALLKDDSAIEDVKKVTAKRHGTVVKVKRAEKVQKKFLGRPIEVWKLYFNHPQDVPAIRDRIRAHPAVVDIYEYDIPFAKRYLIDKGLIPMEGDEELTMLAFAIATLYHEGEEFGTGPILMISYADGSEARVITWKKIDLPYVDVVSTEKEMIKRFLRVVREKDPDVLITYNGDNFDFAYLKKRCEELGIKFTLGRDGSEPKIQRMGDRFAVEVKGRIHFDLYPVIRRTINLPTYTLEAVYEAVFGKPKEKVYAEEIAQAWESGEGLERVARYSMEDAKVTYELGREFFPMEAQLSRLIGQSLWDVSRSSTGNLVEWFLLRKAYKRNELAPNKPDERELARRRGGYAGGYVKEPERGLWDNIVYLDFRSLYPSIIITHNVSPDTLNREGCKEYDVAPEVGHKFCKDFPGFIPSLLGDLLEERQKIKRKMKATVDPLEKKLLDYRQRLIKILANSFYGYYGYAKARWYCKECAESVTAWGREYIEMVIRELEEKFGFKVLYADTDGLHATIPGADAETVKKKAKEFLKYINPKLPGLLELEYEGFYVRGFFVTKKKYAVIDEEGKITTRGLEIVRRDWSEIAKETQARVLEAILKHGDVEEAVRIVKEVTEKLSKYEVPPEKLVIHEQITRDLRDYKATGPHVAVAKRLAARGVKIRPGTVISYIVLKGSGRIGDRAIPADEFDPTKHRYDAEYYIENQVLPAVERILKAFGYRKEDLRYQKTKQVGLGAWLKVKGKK", "type": "biochemical, Thermococcus species 9ºN-7"}, "Bst DNA polymerase": {"target": "T2, Bst DNA polymerase (Geobacillus stearothermophilus, UniProt P52026)", "T2 sequence (P52026 289-876 limits assumed)": "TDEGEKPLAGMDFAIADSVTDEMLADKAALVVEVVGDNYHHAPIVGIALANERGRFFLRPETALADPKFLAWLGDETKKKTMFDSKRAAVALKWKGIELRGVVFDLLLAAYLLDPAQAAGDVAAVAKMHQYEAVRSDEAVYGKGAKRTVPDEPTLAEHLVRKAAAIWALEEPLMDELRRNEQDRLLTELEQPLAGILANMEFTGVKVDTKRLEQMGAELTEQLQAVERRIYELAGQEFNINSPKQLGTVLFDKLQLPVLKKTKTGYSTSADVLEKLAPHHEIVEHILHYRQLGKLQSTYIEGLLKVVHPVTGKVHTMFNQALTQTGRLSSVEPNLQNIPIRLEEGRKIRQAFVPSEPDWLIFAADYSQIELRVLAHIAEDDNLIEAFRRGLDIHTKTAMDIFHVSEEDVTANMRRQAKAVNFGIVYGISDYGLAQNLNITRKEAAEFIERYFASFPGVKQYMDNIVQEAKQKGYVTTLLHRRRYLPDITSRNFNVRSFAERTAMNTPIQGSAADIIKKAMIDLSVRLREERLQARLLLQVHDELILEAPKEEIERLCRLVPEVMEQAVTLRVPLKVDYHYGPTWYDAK", "type": "biochemical, Bacillus stearothermophilus"}, "[2]": {"target": "AmpliTaqFS DNA polymerase (Thermus aquaticus, UniProt P19821, F667Y/G46D)", "sequence (P19821 whole entry G46D/F667Y)": "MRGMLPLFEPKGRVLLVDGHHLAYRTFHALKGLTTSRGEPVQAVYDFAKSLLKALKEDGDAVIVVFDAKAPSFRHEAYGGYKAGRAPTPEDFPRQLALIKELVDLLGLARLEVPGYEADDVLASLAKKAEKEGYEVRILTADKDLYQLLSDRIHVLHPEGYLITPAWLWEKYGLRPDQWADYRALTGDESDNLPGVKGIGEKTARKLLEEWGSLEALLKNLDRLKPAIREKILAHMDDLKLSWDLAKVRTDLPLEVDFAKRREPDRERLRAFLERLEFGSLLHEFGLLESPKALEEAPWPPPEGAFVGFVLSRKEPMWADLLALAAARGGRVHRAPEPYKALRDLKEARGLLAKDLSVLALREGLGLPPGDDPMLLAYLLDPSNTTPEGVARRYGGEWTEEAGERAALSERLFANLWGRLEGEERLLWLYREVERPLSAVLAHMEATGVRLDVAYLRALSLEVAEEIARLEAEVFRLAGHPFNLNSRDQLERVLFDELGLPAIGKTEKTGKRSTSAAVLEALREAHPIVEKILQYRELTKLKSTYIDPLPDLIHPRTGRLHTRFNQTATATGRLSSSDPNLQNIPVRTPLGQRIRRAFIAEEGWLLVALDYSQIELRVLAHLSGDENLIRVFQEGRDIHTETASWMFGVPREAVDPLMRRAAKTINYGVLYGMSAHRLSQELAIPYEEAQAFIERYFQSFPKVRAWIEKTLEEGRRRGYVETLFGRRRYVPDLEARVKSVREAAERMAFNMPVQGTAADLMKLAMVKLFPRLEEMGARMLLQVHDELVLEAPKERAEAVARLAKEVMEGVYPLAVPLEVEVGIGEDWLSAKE", "type": "biochemical, Thermus aquaticus YT-1"}, "[3]": {"target": "T3, Therminator II DNA polymerase (Thermococcus sp., UniProt Q56366, A485L/D141A/E143A/Y409V)", "T3 sequence (Q56366 1-775 D141A/E143A/Y409V/A485L)": "T1 sequence (Q56366 1-775 D141A/E143A/A485L) with Y409V", "type": "biochemical, Thermococcus species 9ºN-7"}, "Taq DNA polymerase": {"target": "Taq DNA polymerase (Thermus aquaticus, UniProt P19821)", "sequence (P19821 whole entry)": "as the sequence (P19821 whole entry G46D/F667Y) above, with D46G, Y667F counted along it", "type": "biochemical, Thermus aquaticus YT-1"}, "[4]": {"conditions": "Therminator, ratio of IC50 values"}, "[5]": {"conditions": "AmpliTaqFS, ratio of IC50 values"}, "[6]": {"conditions": "Therminator II, ratio of IC50 values"}}, "note": "Numbering of substitutions follows the chain as printed."}
{"smiles": "Nc1ncnc2c1ncn2[C@H]1CC[C@@H](COP(=O)(O)OP(=O)(O)OP(=O)(O)O)O1", "note": "[ddATP, 2′,3′-dideoxyadenosine triphosphate, reference compound]", "values": [{"measurement": "IC50", "setting": "[1]", "result": "9.7 ± 1.1", "unit": "nM"}, {"measurement": "Incorporation bias ddATP/dATP", "setting": "[1]; [4]", "result": 4.2}, {"measurement": "IC50", "setting": "Bst DNA polymerase", "result": "370 ± 30", "unit": "nM"}, {"measurement": "Incorporation bias ddATP/dATP", "setting": "Bst DNA polymerase; Bst, ratio of IC50 values", "result": 310}, {"measurement": "IC50", "setting": "[2]", "result": "3.3 ± 0.1", "unit": "nM"}, {"measurement": "Incorporation bias ddATP/dATP", "setting": "[2]; [5]", "result": 0.62}, {"measurement": "IC50", "setting": "[3]", "result": "230 ± 30", "unit": "nM"}, {"measurement": "Incorporation bias ddATP/dATP", "setting": "[3]; [6]", "result": 52}, {"measurement": "IC50", "setting": "Taq DNA polymerase", "result": "12600 ± 900", "unit": "nM"}, {"measurement": "Incorporation bias ddATP/dATP", "setting": "Taq DNA polymerase; Taq, ratio of IC50 values", "result": 2300}]}
{"smiles": "O=[N+]([O-])c1ccccc1CNc1ncnc2c1ncn2[C@H]1C[C@H](O)[C@@H](COP(=O)(O)OP(=O)(O)OP(=O)(O)O)O1", "note": "[Compound IIIc, N^6-(2-Nitrobenzyl)-2’-deoxyadenosine-5’-triphosphate]", "values": [{"measurement": "Incorporation bias Cpd IIIc/dATP", "setting": "[1]; [4]", "result": 1.3}, {"measurement": "Incorporation bias Cpd IIIc/ddATP", "setting": "[1]; [4]", "result": 0.32}, {"measurement": "Incorporation bias Cpd IIIc/dATP", "setting": "Bst DNA polymerase; Bst, ratio of IC50 values", "result": 18}, {"measurement": "Incorporation bias Cpd IIIc/ddATP", "setting": "Bst DNA polymerase; Bst, ratio of IC50 values", "result": 0.057}, {"measurement": "Incorporation bias Cpd IIIc/dATP", "setting": "[2]; [5]", "result": 170}, {"measurement": "Incorporation bias Cpd IIIc/ddATP", "setting": "[2]; [5]", "result": 270}, {"measurement": "Incorporation bias Cpd IIIc/dATP", "setting": "[3]; [6]", "result": 1.8}, {"measurement": "Incorporation bias Cpd IIIc/ddATP", "setting": "[3]; [6]", "result": 0.034}, {"measurement": "Incorporation bias Cpd IIIc/dATP", "setting": "Taq DNA polymerase; Taq, ratio of IC50 values", "result": 380}, {"measurement": "Incorporation bias Cpd IIIc/ddATP", "setting": "Taq DNA polymerase; Taq, ratio of IC50 values", "result": 0.17}]}
